Where a name gives a salt, the structure may show the parent alone. Read-outs that look alike come from different tables or passages of the source.
Columns and labels:
[1] = cited from earlier work
Lewis Lung tumor cells = experiment: Lewis Lung Model: tumor volume and lung metastasis; type: in vivo, Mice
From the text: The data is expressed as the mean +/−SEM. […] Analysis of lung metastasis is done in all the animals by counting metastasis in a stereomicroscope and by histochemical analysis of consecutive lung sections.

COX-1 = COX-1 (UniProt P23219); experiment: Fast assay for COX-1 activity (PGE2 ELISA); conditions: read-out: COX-1* IC50, recombinant COX-1, PGE2 ELISA, 10 min pre-incubation at 25° C.
Method: (§1) The homogenate was centrifuged at 10,000×G for 30 minutes, and the resultant supernatant was stored at −80° C. before being assayed for COX activity.
(§2) COX activity was assayed as PGE2 formed/μg protein/time using an ELISA to detect the prostaglandin released. CHAPS-solubilized insect cell membranes containing the appropriate COX enzyme were incubated in a potassium phosphate buffer (0.05 M Potassium phosphate, pH 7.5, 2 μM phenol, 1 μM heme, 300 μM epinephrine) with the addition of 20 μl of 100 μM arachidonic acid (10 μM). […] The PGE2 formed was measured by standard ELISA technology (Cayman Chemical).

COX-2 = biological target: T1, COX-2 (UniProt P35354); experiment: Fast assay for COX-2 activity (PGE2 ELISA); conditions: read-out: COX-2* IC50, recombinant COX-2, PGE2 ELISA, 10 min pre-incubation at 25° C.
T1 sequence (P35354 1-604): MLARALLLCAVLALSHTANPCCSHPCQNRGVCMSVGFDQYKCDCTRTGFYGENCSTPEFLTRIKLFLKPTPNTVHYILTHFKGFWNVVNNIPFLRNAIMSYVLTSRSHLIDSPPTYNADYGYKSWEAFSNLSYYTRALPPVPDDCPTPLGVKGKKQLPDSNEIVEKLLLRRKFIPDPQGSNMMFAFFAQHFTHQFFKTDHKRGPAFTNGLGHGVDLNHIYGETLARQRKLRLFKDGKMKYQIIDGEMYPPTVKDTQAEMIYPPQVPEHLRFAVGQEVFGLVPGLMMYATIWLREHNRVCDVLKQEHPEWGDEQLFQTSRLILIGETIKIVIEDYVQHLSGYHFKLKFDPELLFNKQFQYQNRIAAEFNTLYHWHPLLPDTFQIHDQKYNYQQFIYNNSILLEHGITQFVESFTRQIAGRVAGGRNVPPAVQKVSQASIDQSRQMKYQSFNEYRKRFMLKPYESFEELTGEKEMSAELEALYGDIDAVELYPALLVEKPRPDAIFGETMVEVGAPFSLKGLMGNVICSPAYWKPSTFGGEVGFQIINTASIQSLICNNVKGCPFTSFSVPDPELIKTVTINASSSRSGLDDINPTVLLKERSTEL
Method: as §1, §2

[2] = cited from earlier work; remark: listed apart in the source
[3] = cited from earlier work; remark: listed apart in the source
[4] = doses of 15 mg/kg/day, biliary cirrhosis trials; cited from earlier work

Row | Compound | IC50 (COX-1) [µM] | melting point [°C] | further results
1 | CC[C@@]1(O)C(=O)OCc2c1cc1n(c2=O)Cc2cc3c(N)cccc3nc2-1 [9-aminocamptothecin, 1H-Pyrano[3′,4′:6,7]indolizino[1,2-b]quinoline-3,14(4H,12H)-dione, 10-amino-4-ethyl-4-hydroxy-, (S)-] | – | – | Maximum tolerated dose ([1]; in vivo): dose = 45 mug/square metre/hr
2 | Cc1ccc(-c2cc(C(F)(F)F)nn2-c2ccc(S(N)(=O)=O)cc2)cc1 [Celecoxib, 4-[5-(4-methylphenyl)-3-(trifluoromethyl)-1H-pyrazol-1-yl]-benzenesulfonamide] | – | – | size of the metastatic lesions in the lung (Lewis Lung tumor cells; histopathological analysis): dose-dependently reduces the size of the metastasic lesions in the lung; effect on lung metastasis (Lewis Lung tumor cells; lower dose of 160 ppm in the diet): does not affect lung metastasis
3 | O=C(O)C1=Cc2cc(Cl)ccc2OC1C(F)(F)F (stereo not shown) [Example 1, 6-Chloro-2-trifluoromethyl-2H-1-benzopyran-3-carboxylic acid] | 43 | – | IC50 (COX-2): 0.7 µM
4 | CSc1ccc2c(c1)C=C(C(=O)O)C(C(F)(F)F)O2 (stereo not shown) [Example 2, 6-(Methylthio)-2-(trifluoromethyl)-2H-1-benzopyran-3-carboxylic acid] | – | 166.3 to 167.9 | –
5 | O=C(O)C1=Cc2cc(Cl)ccc2O[C@@H]1C(F)(F)F [Example 2, (S)-6-Chloro-2-trifluoromethyl-2H-1-benzopyran-3-carboxylic acid] | – | 126.7 to 128.9 | –
6 | O=C(O)C1=Cc2cc(OC(F)(F)F)ccc2OC1C(F)(F)F (stereo not shown) [Example 5, 6-Trifluoromethoxy-2-trifluoromethyl-2H-1-benzopyran-3-carboxylic acid] | 18.8 | – | –
7 | O=Cc1ccc2c(c1)C=C(C(=O)O)C(C(F)(F)F)O2 (stereo not shown) [Example 7, 6-Formyl-2-(trifluoromethyl)-2H-1-benzopyran-3-carboxylic acid] | > 500 | 211.3 to 215.7 | –
8 | O=C(O)C1=Cc2cc(C(F)F)ccc2OC1C(F)(F)F (stereo not shown) [Example 8, 6-(Difluoromethyl)-2-(trifluoromethyl)-2H-1-benzopyran-3-carboxylic acid] | – | 134.7 to 136.2 | –
9 | Cc1c(Cl)cc2c(c1Cl)OC(C(F)(F)F)C(C(=O)O)=C2 (stereo not shown) [Example 9, 6,8-Dichloro-7-methyl-2-(trifluoromethyl)-2H-1-benzopyran-3-carboxylic acid] | 1 | 229.9 to 230.9 | IC50 (COX-2): 0.9 µM
10 | O=C(O)C1=Cc2cc(Cl)ccc2NC1C(F)(F)F (stereo not shown) [Example 12, 6-Chloro-1,2-dihydro-2-(trifluoromethyl)-3-quinolinecarboxylic acid] | > 500 | 187.8 to 188.8 | IC50 (COX-2): 0.6 µM
11 | O=C(O)C1=Cc2cc(Cl)ccc2N[C@@H]1C(F)(F)F [Example 13, (S)-6-chloro-1,2-dihydro-2-(trifluoromethyl)-3-quinolinecarboxylic acid] | > 100 | 173 to 176 | IC50 (COX-2): 0.2 µM
12 | O=C(O)C1=Cc2cc(Cl)cc(Cl)c2NC1C(F)(F)F (stereo not shown) [Example 14, 6,8-Dichloro-1,2-dihydro-2-(trifluoromethyl)-3-quinolinecarboxylic acid] | 9.7 | 223.4 to 225.7 | IC50 (COX-2): 0.2 µM
13 | CC(C)(C)c1ccc2c(c1)OC(C(F)(F)F)C(C(=O)O)=C2 (stereo not shown) [Example 15, 7-(1,1-Dimethylethyl)-2-trifluoromethyl-2H-1-benzopyran-3-carboxylic acid] | 57 | 165.6 to 166.8 | IC50 (COX-2): 3.6 µM
14 | O=C(O)C1=Cc2cc(Cl)c(Cl)cc2OC1C(F)(F)F (stereo not shown) [Example 16, 6,7-Dichloro-2-trifluoromethyl-2H-1-benzopyran-3-carboxylic acid] | 94.6 | 196.1 to 198.3 | –
15 | O=C(O)C1=Cc2c(ccc(Cl)c2Cl)OC1C(F)(F)F (stereo not shown) [Example 17, 5,6-Dichloro-2-(trifluoromethyl)-2H-1-benzopyran-3-carboxylic acid] | – | 211.5 to 213.5 | –
16 | O=C(O)C1=Cc2cc(C(F)(F)F)ccc2OC1C(F)(F)F (stereo not shown) [Example 18, 2,6-Bis(trifluoromethyl)-2H-1-benzopyran-3-carboxylic acid] | – | 143.5 to 145.2 | –
17 | O=C(O)C1=Cc2c(cc(Cl)c(Cl)c2Cl)OC1C(F)(F)F (stereo not shown) [Example 19, 5,6,7-Trichloro-2-(trifluoromethyl)-2H-1-benzopyran-3-carboxylic acid] | – | 236.2 to 239.3 | –
18 | O=C(O)C1=Cc2cc(Cl)c(Cl)c(Cl)c2OC1C(F)(F)F (stereo not shown) [Example 20, 6,7,8-Trichloro-2-(trifluoromethyl)-2H-1-benzopyran-3-carboxylic acid] | – | 222 to 225.3 | –
19 | O=C(O)C1=Cc2cc(I)ccc2NC1C(F)(F)F (stereo not shown) [Example 21, 6-Iodo-1,2-dihydro-2-(trifluoromethyl)-3-quinolinecarboxylic acid] | > 100 | 188 to 192 | IC50 (COX-2): 0.8 µM
20 | O=C(O)C1=Cc2cc(Br)ccc2NC1C(F)(F)F (stereo not shown) [Example 22, 6-Bromo-1,2-dihydro-2-(trifluoromethyl)-3-quinolinecarboxylic acid] | > 100 | 185 to 186 | IC50 (COX-2): 0.4 µM
21 | Cc1cc2c(cc1Cl)C=C(C(=O)O)C(C(F)(F)F)S2 (stereo not shown) [Example 23, 6-Chloro-7-methyl-2-(trifluoromethyl)-2H-1-benzothiopyran-3-carboxylic acid] | 365 | 240.5 to 241.7 | –
22 | O=C(O)C1=Cc2cc(Cl)cc(Cl)c2SC1C(F)(F)F (stereo not shown) [Example 24, 6,8-Dichloro-2-trifluoromethyl-2H-1-benzothiopyran-3-carboxylic acid] | 0.2 | – | –
23 | CCc1c2c(nc3ccc(OC(=O)N4CCC(N5CCCCC5)CC4)cc13)-c1cc3c(c(=O)n1C2)COC(=O)[C@]3(O)CC.Cl [Irinotecan hydrochloride, (4S)-4,11-diethyl-4-hydroxy-9-((4-piperidinopiperidino)carbonyloxy)-1H-pyrano(3′,4′:6,7)indolizino(1,2-b)quinoline-3,14(4H,12H)dione hydrochloride] | – | – | Lethality in rats [2]: in rats: 73 mg/kg; Lethality in mice [3]: mice: 111 mg/kg
24 | O=C1c2c(c3c4ccc(O)cc4n([C@@H]4O[C@H](CO)[C@@H](O)[C@H](O)[C@H]4O)c3c3[nH]c4cc(O)ccc4c23)C(=O)N1NC(CO)CO [J 107088, 5H-Indolo[2,3-a]pyrrolo[3,4-c]carbazole-5,7(6H)-dione, 12-β-D-glucopyranosyl-12,13-dihydro-2,10-dihydroxy-6-[[2-hydroxy-1-(hydroxymethyl)ethyl]amino]-] | – | – | Maximum tolerated dose ([1]; in vivo): 7.5 mg/m2
25 | CC[C@@]1(O)C(=O)OCc2c1cc1n(c2=O)Cc2cc3c(CN(C)C)c(O)ccc3nc2-1 [Topotecan hydrochloride, (S)-10-((dimethylamino)methyl)-4-ethyl-4,9-dihydroxy-1H-pyrano(3′,4′:6,7)indolizino(1,2-B)quinoline-3,14-(4H,12H)-dione monohydrochloride] | – | – | LD10 ([3]; mice, single IV infusion): 75 mg/m^2
26 | CC[C@@]1(O)C(=O)OCc2c1cc1n(c2=O)Cc2cc3c(CN(C)C)c(O)ccc3nc2-1 [Topotecan, 1H-Pyrano[3′,4′:6,7]indolizino[1,2-b]quinoline-3,14(4,H,12H)-dione, 10-[(dimethylamino)methyl]-4-ethyl-4,9-dihydroxy-, (S)-] | – | – | Maximally tolerated dose ([1]; × 5 d every 3 to 4 wk): dose: 1.5 mg/m^2
27 | C[C@H](CCC(=O)O)[C@H]1CC[C@H]2[C@@H]3[C@@H](O)C[C@@H]4C[C@H](O)CC[C@]4(C)[C@H]3CC[C@]12C [URSO] | – | – | tolerability and toxicity [4]: extremely well tolerated and without toxicity
28 | CC[C@@]1(O)C(=O)OCc2c1cc1n(c2=O)Cc2cc3c([N+](=O)[O-])cccc3nc2-1 [rubitecan, 1H-Pyrano[3′,4′:6,7]indolizino[1,2-b]quinoline-3,14(4H,12H)-dione, -4-ethyl-4-hydroxy-10-nitro-, (S)-] | – | – | grade 4 anemia ([1]; % of patients): 29% of; grade 4 thrombocytopenia ([1]; % of patients): penia in 18%.; chemical cystitis, Grade 2 or higher ([1]; occurred at each dose level): (25%),; diarrhea, Grade 2 or higher ([1]; occurred at each dose level): (32%),; nausea and vomiting, Grade 2 or higher ([1]; occurred at each dose level): (54%),; neutropenic sepsis, Grade 2 or higher ([1]; occurred at each dose level): sepsis (21%),; weight loss, Grade 2 or higher ([1]; occurred at each dose level): loss (18%).; Maximum tolerated dose ([1]; over five consecutive days repeated every week): 1.5 mg/ mg/m2/day

— patent US20020103141A1, “Antiangiogenic combination therapy for the treatment of cancer” (priority 1998, published 2002)
